# Assays:
# eIF1-eIF4G1 complex = target: T1, eIF1-eIF4G1 complex (Homo sapiens, UniProt Q04637); assay: Co-immunoprecipitation of endogenous eIF4G1 with HA-eIF1; assay type: cell-based; conditions: ER stress, Thapsigargin 1 μM, 1 hour
# T1 construct: co-immunoprecipitation of endogenous eIF4G1 in HEK293T cells expressing HA-eIF1 or HA-eIF4E was performed; endogenous in cells; host or cells: HEK293T (eIF4G1 endogenous; HA-eIF1 transfected)
# Protocol: (§1) FIGS. 2A-C: The effect of i14G1-10 and i14G1-12 on eIF1-eIF4G1 and eIF4E-eIF4G1 complexes. (2A-B) HA-eIF1 and HA-eIF4E were each transfected into HEK293T cells and 48 h after transfection cells were treated with DMSO or i14G1-10 (2A) or i14G1-12 (2B) for 4 h, followed by immunoprecipitation of HA-eIF1 or HA-eIF4E using anti-HA-agarose beads. Western blot was run to check co-immunoprecipitation of endogenous eIF4G1 with HA-eIF1 or HA-eIF4E. The graphs represent the co-immunoprecipitation of eIF4G1 with HA-eIF1 (right) or HA-eIF4E (left). Co—IP data shown as mean±SEM of 4-7 independent experiments. The asterisks denote statistically significant difference compared to DMSO, according to Student's t-tests (one-tailed, paired). *p<0.05. (2C) HEK293T cells were treated with DMSO, i14G1-10, or i14G1-12 for 4 h, followed by cell lysis. Respective cell lysates were incubated with cap analog (γ-Aminohexyl-m7GTP) beads for 2 h to precipitate bound eIF4E. Western blot was performed to check co-precipitation of eIF4G1 along with eIF4E on the cap-analog beads. The graph represents the binding fraction of eIF4G1 and eIF4E to the cap-analog beads (mean±SEM) with DMSO (black), i14G1-10 (blue), and i14G1-12 (red), n=6. The asterisks denote statistically significant difference compared to DMSO, according to Student's t-tests (one-tailed, paired). *p<0.05; **p<0.01.
# (§2) Co-immunoprecipitation. HEK293T cells were transfected with 5 μg of HA-eIF1 or HA-eIF4E plasmids along with 10 ng GFP plasmid to check for transfection efficiency using Jetprime reagent as per manufacturer's protocol. After 48 h, HA-eIF1 and HA-eIF4E expressing HEK293T cells were incubated with DMSO, i14G1-10 (20 μM), and […] (10 μM). 4 h later, cells were lysed using IP buffer (20 mM Tris pH8, 125 mM NaCl, 10% glycerol, 50 mM NaF, 1 mM […], 0.5% NP-40, and 0.2 mM EDTA) supplemented with fresh protease inhibitor cocktail (1:100) and PMSF 200 μM (1:100). Protein extract was taken for immunoprecipitation using either monoclonal anti-HA-agarose antibody (Sigma) or control IgG antibody in IP buffer, at 4° C. for 2 hours. […]
# eIF4E-eIF4G1 complex = target: T2, eIF4E-eIF4G1 complex (Homo sapiens, UniProt Q04637); assay: Co-immunoprecipitation of endogenous eIF4G1 with HA-eIF4E; assay type: cell-based; conditions: ER stress, Thapsigargin 1 μM, 1 hour
# T2 construct: co-immunoprecipitation of endogenous eIF4G1 in HEK293T cells expressing HA-eIF1 or HA-eIF4E was performed; endogenous in cells; host or cells: HEK293T (eIF4G1 endogenous; HA-eIF4E transfected)
# Protocol: as §1, §2
# [1] = tested on: leaky scanning from cap-proximal AUG in HEK293T cells; assay: Leaky scanning GFP reporter with cap-proximal upstream AUG, western blot; assay type: cell-based, human; conditions: upstream AUG with 16 nt 5′UTR
# Text: FIGS. 1A-G: Identification and initial characterization of eIF1-eIF4G1 inhibitors using a high-throughput drug screen (HTS). (1A) A flowchart describing the steps of the recombinant eIF1-eIF4G1 split-RL HTS. (1B) Selection of drugs that inhibit leaky scanning. HEK293T cells were transfected with a short 5′UTR bearing GFP reporter gene described on the top, treated with the indicated HTS hits, and then analyzed by western blot with GFP antibody. US and DS denote upstream and downstream AUG initiation sites, respectively. (1C) A graph showing the change in the ratio of the upstream and downstream AUG following treatment with the indicated drugs. (1D) The chemical structure of the eIF1-eIF4G1 inhibitors, i14G1-10 and i14G1-12. (1E) His-tagged eIF4G1 and His-tagged eIF1 were expressed in BL21 bacteria and purified using nickel NTA beads. Purified His-tagged eIF4G1 and His-tagged eIF1 were incubated with the indicated doses of either i14G1-10 (0-256 μM) or i14G1-12 (0-256 μM) for 5 minutes, followed by fluorescence measurement. For eIF4G1 excitation was at 280 nm and emission was at 350 nm. For eIF1 excitation was at 274 nm and emission was at 304 nm. The data shown represent three independent replicates. IC50 was calculated using Graphpad prism 9. (1F-1G) Western blots of GST pull down. […]
# To address the functional significance of the temporal eIF1-eIF4G1 interaction, the inventors set out to develop pharmacological tools against this complex. To this end, the split-Renilla luciferase (RL) complementation assay previously found to be an efficient readout of eIF1 and eIF4G1 interaction in mammalian cells and a highly sensitive and powerful approach for the identification of protein-protein inhibitors was used. […] As knockdown of either eIF1 or eIF4G1 and interference with eIF1-eIF4G1 interaction led to the arrest of leaky scanning from cap-proximal AUG, the selected compounds were analyzed for their effect on initiation from cap-proximal AUG. […]
# T2 sequence (Q04637 whole entry): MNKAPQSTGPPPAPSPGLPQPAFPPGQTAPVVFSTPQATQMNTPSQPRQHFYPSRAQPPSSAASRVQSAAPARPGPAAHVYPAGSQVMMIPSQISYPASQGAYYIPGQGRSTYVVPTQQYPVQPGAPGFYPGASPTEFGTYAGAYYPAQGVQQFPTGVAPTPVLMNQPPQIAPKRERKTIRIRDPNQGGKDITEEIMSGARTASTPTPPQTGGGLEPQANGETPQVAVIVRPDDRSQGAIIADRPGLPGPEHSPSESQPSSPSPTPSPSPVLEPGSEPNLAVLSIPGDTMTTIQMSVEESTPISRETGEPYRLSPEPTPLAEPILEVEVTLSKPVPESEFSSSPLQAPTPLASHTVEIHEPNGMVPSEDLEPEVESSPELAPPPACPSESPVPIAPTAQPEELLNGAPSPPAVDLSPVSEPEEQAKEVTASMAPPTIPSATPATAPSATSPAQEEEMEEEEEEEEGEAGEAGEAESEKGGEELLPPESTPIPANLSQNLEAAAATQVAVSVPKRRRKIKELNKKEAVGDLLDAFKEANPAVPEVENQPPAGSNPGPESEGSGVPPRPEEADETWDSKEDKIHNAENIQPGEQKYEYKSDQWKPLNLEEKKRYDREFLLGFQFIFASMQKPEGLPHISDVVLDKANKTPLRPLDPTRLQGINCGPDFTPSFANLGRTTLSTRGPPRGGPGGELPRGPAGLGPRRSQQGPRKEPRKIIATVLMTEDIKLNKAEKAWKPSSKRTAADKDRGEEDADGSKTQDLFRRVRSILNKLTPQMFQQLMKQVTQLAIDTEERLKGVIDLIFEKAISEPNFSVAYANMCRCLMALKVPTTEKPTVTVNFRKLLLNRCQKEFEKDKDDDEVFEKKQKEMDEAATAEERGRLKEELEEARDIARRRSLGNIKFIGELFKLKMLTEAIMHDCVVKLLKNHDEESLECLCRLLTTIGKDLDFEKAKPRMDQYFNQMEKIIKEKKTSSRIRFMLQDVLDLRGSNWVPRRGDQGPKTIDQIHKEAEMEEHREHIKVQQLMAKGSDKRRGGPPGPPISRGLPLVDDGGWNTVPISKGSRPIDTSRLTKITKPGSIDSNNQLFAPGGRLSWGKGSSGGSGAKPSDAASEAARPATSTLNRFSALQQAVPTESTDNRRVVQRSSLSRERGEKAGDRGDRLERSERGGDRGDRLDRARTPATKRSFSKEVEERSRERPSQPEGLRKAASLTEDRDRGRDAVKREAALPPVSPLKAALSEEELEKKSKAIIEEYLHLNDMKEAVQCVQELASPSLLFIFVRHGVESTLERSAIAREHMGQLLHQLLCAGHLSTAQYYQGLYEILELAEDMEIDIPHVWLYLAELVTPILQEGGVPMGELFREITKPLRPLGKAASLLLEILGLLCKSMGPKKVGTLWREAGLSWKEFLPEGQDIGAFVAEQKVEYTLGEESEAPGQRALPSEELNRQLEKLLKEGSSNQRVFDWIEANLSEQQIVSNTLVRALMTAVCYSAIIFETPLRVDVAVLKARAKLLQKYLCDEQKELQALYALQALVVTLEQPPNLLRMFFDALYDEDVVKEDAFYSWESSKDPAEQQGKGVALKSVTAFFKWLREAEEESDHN
# T2 sequence (P06730 whole entry partner): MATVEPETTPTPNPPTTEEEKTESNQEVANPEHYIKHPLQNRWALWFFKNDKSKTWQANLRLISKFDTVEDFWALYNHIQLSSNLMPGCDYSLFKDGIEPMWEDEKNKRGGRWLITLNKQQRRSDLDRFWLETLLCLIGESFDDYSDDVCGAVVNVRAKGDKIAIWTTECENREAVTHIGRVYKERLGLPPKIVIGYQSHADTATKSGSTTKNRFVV
# T1 sequence (Q04637 whole entry, one chain of several): as the sequence (Q04637 whole entry) above
Compound,reduction of co-precipitated eIF4G1 with HA-eIF1 (eIF1-eIF4G1 complex) [%],level of co-precipitated eIF4G1 with HA-eIF4E (eIF4E-eIF4G1 complex),upstream to downstream AUG ratio (leaky scanning) [1]
"C/C=C(/C)C(=O)O[C@H]1C(C)=C2[C@H]([C@@H]1OC(=O)CCCCCCC)[C@@](C)(OC(C)=O)C[C@H](OC(=O)CCC)[C@@]1(O)[C@H]2OC(=O)[C@@]1(C)O [Thapsigargin, reference compound]",50,no significant change,
Cc1ccc(/C(=C\C=C(C#N)C#N)Sc2nc3ccccc3s2)cc1 [i14G1-11],,,selectively changed the upstream to downstream ratio by inhibiting leaky scanning from the cap-proximal AUG

# Source: patent publication US20250090510A1, “eIF4G1-eIF1 INHIBITORS AND USE THEREOF” (YEDA RESEARCH AND DEVELOPMENT CO. LTD., priority 2022, published 2025)
